Reference: patent US20220218714A1, “METHOD OF TREATING CANCER” (Epizyme, Inc., priority 2013, published 2022)

Key:
HS-SY-II cells [1] = assay: Adherent cell line 14-day long-term proliferation assay (CellTiter-Glo); assay type: cell-based, human
Description: (§1) 96-well plating for 7 day assay: For each adherent cell line, plated cells in a volume of 100 μL in 96-well plates, to be treated in triplicate, either in the evening (to treat with compound the following day) or in morning (to treat with compound in the evening), to allow cells to attach to plates before compound treatment.
(§2) 6-well plates to be split for 7-14 day assay: Plated 2mL of cells at the correct density in each well of the 6-well plate. Calculated the correct density from the 96-well plate growth curve by multiplying the 96-well density by 30. The factor 30 came from growth area of the 6-well plate divided by the growth area of the 96-well plate (9.5cm^2/0.32cm^2=29.7, rounded up to 30), which corresponds to 30-fold more surface area in a 6-well vs. a 96-well plate.
(§3) Day 0: Treated with compound or DMSO by removing media and adding back either […] (for 96-well plate) or 2 mL (for 6-well plate) media with the correct dilutions of compound/DMSO. Table 1 includes an example of 96-well plate map. Plates were incubated for 96 hours.
(§4) Read one 96-well plate with CellTiter-Glo®, for a Day 0 reading (media change not necessary for this plate).
(§5) Day 4: Read one 96-well plate with CellTiter-Glo® for a Day 4 reading (media change not necessary for this plate before reading). Replaced media with fresh media containing compound on Day 4 in 96-well plates and 6-well plates.
(§6) Day 7: read final 96-well plate with CellTiter-Glo®.
(§7) Counted individual wells of 6-well plates, and replated cells to initial plating density in 96-well plates, as described above.
(§8) Repeated steps for Days 0-7 for Days 7-14 of the proliferation assay.
(§9) Particularly, approximately 12 hours before compound treatment, HS-SY-II or SW982 cells were plated at the density of 24,000 cells/well and 7,500 cells/well, respectively in 6-well plates. On day 0, cells were treated with either DMSO or compound starting at 10 μmol/L and decreasing in fourfold dilutions. On day 7, the cells in 6-well plates were trypsinized, counted by TC10 automated cell counter (Bio-Rad, Richmond, Calif.) and replated at the density of 800 cells/well and 250 cells/well for HS-SY-II and SW982, respectively in 96-well plates in triplicate. The cells were allowed to adhere to the plate overnight, and treated with either DMSO or compound as on Day 0. On days 0, 7, 11, and 14, cell viability was determined by CellTiter-Glo® Luminescent Cell Viability Assay (Promega) with EnVision 2103 Multilabel Reader (Perkin-Elmer, Wellesley, Mass.). Compound/media was changed with new one on Day 4 and 11. The ratios of the measured values on Days 7, 11, and 14 to that of day 7 were used to plot proliferation from day 7 to day 14, and to calculate the IC50 values on Day 14. […]

SW982 cells [2] = assay: as above; assay type: cell-based, human
Description: as §1, §2, §3, §4, §5, §6, §7, §8, §9

HS-SY-II cells [3] = assay: Gene expression changes in vitro (RT-PCR, normalized to GAPDH); assay type: cell-based, human; conditions: HS-SY-II in vitro culture
Description: ATF3, EGR1, CDKN2A and GAPDH expression were analyzed by using the TaqMan Gene Expression Assays (Life technologies, 4331182) and the TaqMan Probes (Hs00231069_ml, Hs00152928_ml, Hs00233365_ml, and Hs99999905_ml, respectively).

SW982 cells [4] = conditions: SW982 in vitro culture

SMILES | sensitivity (cell proliferation / viability) (HS-SY-II cells [1]) | sensitivity (cell proliferation / viability) (SW982 cells [2]) | ATF3 and EGR1 expression (HS-SY-II cells [3]) | CDKN2A expression (HS-SY-II cells [3]) | ATF3 and EGR1 expression (SW982 cells [4])
CCN(c1cc(-c2ccc(CN3CCOCC3)cc2)cc(C(=O)NCc2c(C)cc(C)[nH]c2=O)c1C)[C@H]1CC[C@H](N(C)C)CC1 [Compound E] | high sensitivity | did not | – | – | –
CCN(c1cc(-c2ccc(CN3CCOCC3)cc2)cc(C(=O)NCc2c(C)cc(C)[nH]c2=O)c1C)[C@H]1CC[C@H](N(C)C)CC1 [Compound C] | – | – | upregulated | Dose- and time-dependent CDKN2A upregulation | not in SW982
